Patent US20040229898A1, “Cyclic bis-compounds clearing malformed proteins” (priority 2001, published 2004)
“Also recorded” adds a separate entry of the source. Read-outs that look alike come from different tables or passages of the source.

Legend:
N2a cells = assay: Cell viability assay (MTT) in uninfected N2a cells; type: cell-based, mouse; conditions: for % Cell Viability (±SEM) 50 nM / % Cell Viability (±SEM) 200 nM / % Cell Viability (±SEM) 500 nM: seven days, N2a, MTT, versus untreated control; for % Cell Viability (±SEM) 500 nM / Cytotoxicity for uninfected neuroblastoma (N2a) cells, in words: 500 nM
Experimental: Uninfected N2a cells were identically seeded onto six-well plates containing MEM (3 mL, supplemented as above). […] Medium was exchanged, together with the compound, every three days. After seven days, thiazolyl blue (300 μL, MTT, 3-[4,5-dimethylthiazol-2-yl]-2,5-diphenyltetrazolium bromide, Sigma-Aldrich) in PBS (5 mgmL^−1), previously sterile filtered, was added. Cells were incubated at 37° C. for 5 h. The medium was removed, and DMSO (3 mL) was added and repeatedly aspirated to solubilize the converted dye.

neuroblastoma cells = conditions: mouse
[1] = patients, cited from earlier work
MRC-5 fibroblast cells = conditions: cited from earlier work
PrP^Sc in ScGT1 cells = PrP^Sc in ScGT1 cells (Mus musculus, UniProt P04925); type: cell-based
Sequence of PrP^Sc in ScGT1 cells (P04925 23-230 limits assumed): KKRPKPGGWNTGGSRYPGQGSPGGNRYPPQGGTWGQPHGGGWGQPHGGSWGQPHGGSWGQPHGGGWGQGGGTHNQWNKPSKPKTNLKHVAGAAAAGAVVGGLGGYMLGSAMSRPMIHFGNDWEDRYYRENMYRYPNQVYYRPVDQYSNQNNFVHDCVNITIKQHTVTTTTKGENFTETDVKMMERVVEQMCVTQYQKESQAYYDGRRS

| Compound | % Cell Viability (±SEM) 50 nM (N2a cells) | % Cell Viability (±SEM) 200 nM (N2a cells) | % Cell Viability (±SEM) 500 nM (N2a cells) | also measured |
| --- | --- | --- | --- | --- |
| COc1ccc2nc3cc(Cl)ccc3c(NCCCCCCCCNc3c4ccc(Cl)cc4nc4ccc(OC)nc34)c2n1 [Compound 21, N,N′-Bis-(7-chloro-2-methoxy-benzo[b][1,5]naphthyridin-10-yl)-octane-1,8-diamine] | 95(±3) % | 100(±6) % | 96(±5) % | melting point: 114 to 115 °C |
| COc1ccc2nc3cc(Cl)ccc3c(NCCCCCCCCNc3c4ccc(Cl)cc4nc4ccc(OC)cc34)c2c1 [Compound 3] | 100(±4) % | 100(±2) % | 97(±6) % |  |
| COc1ccc2nc3cc(Cl)ccc3c(NCCCCCCNc3c4ccc(Cl)cc4nc4ccc(OC)cc34)c2c1 [Compound 2] | 90(±3) % | 96(±3) % | 82(±3) % |  |
| COc1ccc2nc3cc(Cl)ccc3c(NCCCCCCCCCCNc3c4ccc(Cl)cc4nc4ccc(OC)cc34)c2c1 [Compound 4] | 99(±21) % | 95(±21) % | 90(±17) % |  |
| CCCN(CCCCNc1c2ccc(Cl)cc2nc2ccc(OC)cc12)CCCNc1c2ccc(Cl)cc2nc2ccc(OC)cc12 [Compound 15, N-(6-Chloro-2-methoxy-acridin-9-yl)-N′-[3-(6-chloro-2-methoxy-acridin-9-ylamino)-propyl]-N′-propyl-butane-1,4-diamine] | 100(±5) % | 77(±4) % | 0(±1) % |  |
| COc1ccc2nc3cc(Cl)ccc3c(NCCCCN(CCCNc3c4ccc(Cl)cc4nc4ccc(OC)cc34)C(=O)C(C)NC(=O)OC(C)(C)C)c2c1 (stereo not drawn) [Compound 17, (1-{[4-(6-chloro-2-methoxy-acridin-9-ylamino)-butyl]-[3-(6-chloro-2-methoxy-acridin-9-ylamino)-propyl]-carbamoyl}-ethyl)-carbamic acid tert-butyl ester] | 98(±12) % | 85(±6) % | 84(±3) % | Cytotoxicity for uninfected neuroblastoma (N2a) cells, in words (N2a cells): not cytotoxic |
| COc1ccc2nc3cc(Cl)ccc3c(NCCCCNCCCNc3c4ccc(Cl)cc4nc4ccc(OC)nc34)c2n1.Cl [Compound 20] | 100(±15) % | 100(±9) % | 88(±8) % | Cytotoxicity for uninfected neuroblastoma (N2a) cells, in words (N2a cells): nontoxic |
| CN(C)CCCN1c2ccccc2Sc2ccc(Cl)cc21 [chlorpromazine] |  |  |  | decrease in cell population (neuroblastoma cells): 50% |
| COc1ccc2nc3cc(Cl)ccc3c(NCCCCN(CCCNc3c4ccc(Cl)cc4nc4ccc(OC)cc34)C(=O)CNC(=O)[C@H](C)NC(=O)OC(C)(C)C)c2c1 [Compound 19] | 88(±18) % | 78(±13) % | 70(±12) % |  |
| COc1ccc2nc3cc(Cl)ccc3c(NCCCNCCCNc3c4ccc(Cl)cc4nc4ccc(OC)cc34)c2c1 [Compound 6] | 98(±5) % | 33(±1) % | 1(±1) % |  |
| COc1ccc2nc3cc(Cl)ccc3c(NCCCCN(CCCNc3c4ccc(Cl)cc4nc4ccc(OC)cc34)C(=O)[C@H](C)N)c2c1 [Compound 16] | 100(±22) % | 59(±13) % | 0(±1) % |  |
| COc1ccc2nc3cc(Cl)ccc3c(NCCCCNc3c4ccc(Cl)cc4nc4ccc(OC)cc34)c2c1 [Compound 1] | 100(±9) % | 100(±9) % | 100(±6) % |  |
| COc1ccc2nc3cc(Cl)ccc3c(NCCNCCNc3c4ccc(Cl)cc4nc4ccc(OC)cc34)c2c1 [Compound 5] | 100(±20) % | 100(±9) % | 100(±18) % |  |
| COc1ccc2nc3cc(Cl)ccc3c(NCCNCCCNCCNc3c4ccc(Cl)cc4nc4ccc(OC)cc34)c2c1 [Compound 8] | 100(±13) % | 23(±10) % | 1(±1) % |  |
| CSc1ccc2c(c1)N(CCC1CCCCN1C)c1ccccc1S2 (stereo not drawn) [thioridazine] |  |  |  | brain concentration ([1]; 300 mg daily): 20 µM; brain concentration ([1]; daily oral dosage of 800 mg, post mortem brain samples): more than 80 μM |
| COc1ccc2nc3cc(Cl)ccc3c(NCCCN(C)CCCNc3c4ccc(Cl)cc4nc4ccc(OC)cc34)c2c1 [Compound 14] | 73(±2) % | 59(±8) % | 1(±1) % |  |
| COc1ccc2nc3cc(Cl)ccc3c(NCCCCN(CCCNc3c4ccc(Cl)cc4nc4ccc(OC)cc34)C(=O)CNC(=O)[C@H](C)N)c2c1 [Compound 18] | 96(±4) % | 93(±1) % | 0(±1) % |  |
| COc1ccc2nc3cc(Cl)ccc3c(NCCCNCCCNCCCNc3c4ccc(Cl)cc4nc4ccc(OC)cc34)c2c1.Cl [Compound 9] | 92(±7) % | 16(±7) % | 10(±2) % |  |
| COc1ccc2nc3cc(Cl)ccc3c(NCCCN3CCN(CCCNc4c5ccc(Cl)cc5nc5ccc(OC)cc45)CC3)c2c1 [Compound 11, (6-chloro-2-methoxy-acridin-9-yl)-(3-{4-[3-(6-chloro-2-methoxy-acridin-9-ylamino)-propyl]-piperazin-1-yl}-propyl)-amine] | 94(±11) % | 89(±9) % | 79(±1) % | cytotoxicity to MRC-5 fibroblast cells versus non-constrained polyamine-linked bis-acridines (e.g., 7) (MRC-5 fibroblast cells): less cytotoxic; Cytotoxicity for uninfected neuroblastoma (N2a) cells, in words (N2a cells): not cytotoxic; reduction of PrP^Sc in ScGT1 cells, in words (PrP^Sc in ScGT1 cells; 100 nM to 500 nM, Western blot): dose-dependent manner; curing of ScGT1 cells after one-week incubation (PrP^Sc in ScGT1 cells; 0.5 μM or 1.0 μM, one week): could be cured of PrP^Sc; also recorded: absence of PK-resistant PrP; re-infection of cured ScGT1 cells with prion inoculum (PrP^Sc in ScGT1 cells; cured cells incubated with prion inoculum): could subsequently be re-infected; also recorded: decrease the capacity of ScGT1 cells to be re-infected; also recorded: PrP^Sc was detected |
| COc1ccc2nc3cc(Cl)ccc3c(NCCOCCOCCNc3c4ccc(Cl)cc4nc4ccc(OC)cc34)c2c1 [Compound 13, N,N′-Bis-(6-chloro-2-methoxy-acridin-9-yl)-1,8-diamino-3,6-dioxaoctane] | 97(±8) % | 90(±9) % | 98(±11) % | Cytotoxicity for uninfected neuroblastoma (N2a) cells, in words (N2a cells): not cytotoxic |
